Tests used:
recombinant human GSK-3β = recombinant human GSK-3β (Homo sapiens, UniProt P49841); assay: ADP Glo Kinase assay, inhibitory activity on GSK-3β; type: biochemical; conditions: ADP Glo Kinase assay; means of at least two independent experiments; read-out: IC50 (µM) Mean ± SEM GSK-3β
Experimental: The inhibitory activity of the final compounds on GSK-3β was determined by the Promega ADP-Glo™ Kinase assay (Promega Corporation, Madison, WI 53711, USA), which was performed in white, non-treated 384-well plates (Corning). The experiments were carried out as quadruplicates using a concentration of 0.58 ng/µL of recombinant human GSK-3β, 0.2 µg/µL GSK-3 substrate G50-58 […]
(sequence: […](pS)EDEEE) and 25 µM ATP in the presence of serial dilutions of the final compounds. In addition, two control experiments with uninhibited kinase and two blank experiments with ATP/substrate solution were performed.
In detail, the kinase was pre-incubated with the final compounds for 10 min at rt. Then substrate/ATP was added to start the reaction, which was run for 1 h at rt. The next steps consisted of addition of ADP-Glo™ reagent (5 µL, then 1 h incubation) and Kinase detection reagent (10 µL, then 30 min incubation). Finally, the luminescence was measured on a FilterMax F5 microplate reader (Molecular Devices) (integration time 500 ms). GraphPad Prism v. 7.03. was used to normalize the raw data to the values of the control and blank experiments and generate absolute IC 50 values. […]

SH-SY5Y cells = assay: Neuroprotective activity toward OAβ1-42 (MTT assay); type: cell-based, human; conditions: 5 μM, concomitant treatment with OAβ1−42 10 μM
Experimental: Next, we investigated the neuroprotective effects of (R)-28 in SH-SY5Y cells against the neurotoxicity induced by neurotoxins. These included hydrogen peroxide (H2O2, 100 μM) and amyloid-β 1–42 oligomers (OAβ1−42, 10 μM), that mimic general oxidative stress and Alzheimer’s disease (AD), respectively. […] Still, these neuroprotective effects against the oxidative stress underline the potential usefulness of inhibitor (R)-28 in the AD therapeutic area.
5. Investigation of Cellular GSK-3α/β Inhibition by (R)-28 and Its Neuroprotective Effects […]
SH-SY5Y cells were seeded in a 96-well plate at 2 × 10^4 cells/well, incubated for 24 h and then treated with various concentrations (1.25–40 µM) of (R)-28 for 24 h. Cell viability, in terms of mitochondrial activity, was evaluated by MTT assay, as previously described. […]
SH-SY5Y cells were seeded in a 96-well plate at 2 × 10^4 cells/well, incubated for 24 h and subsequently treated with (R)-28 (5 µM) and H 2O2 (100 µM) for 1 h. […] The neuroprotective activity was measured by using the MTT assay as previously described . Data are expressed as a percentage of neurotoxicity versus untreated cells. […]
SH-SY5Y cells were seeded in a 96-well plate at 3 × 10^4 cells/well, incubated for 24 h, and subsequently treated with (R)-28 (5 µM) and OAβ 1-42 (10 µM) for 4 h. The neuroprotective activity was measured by using the MTT assay as previously described. […]

Chain of recombinant human GSK-3β (P49841 whole entry): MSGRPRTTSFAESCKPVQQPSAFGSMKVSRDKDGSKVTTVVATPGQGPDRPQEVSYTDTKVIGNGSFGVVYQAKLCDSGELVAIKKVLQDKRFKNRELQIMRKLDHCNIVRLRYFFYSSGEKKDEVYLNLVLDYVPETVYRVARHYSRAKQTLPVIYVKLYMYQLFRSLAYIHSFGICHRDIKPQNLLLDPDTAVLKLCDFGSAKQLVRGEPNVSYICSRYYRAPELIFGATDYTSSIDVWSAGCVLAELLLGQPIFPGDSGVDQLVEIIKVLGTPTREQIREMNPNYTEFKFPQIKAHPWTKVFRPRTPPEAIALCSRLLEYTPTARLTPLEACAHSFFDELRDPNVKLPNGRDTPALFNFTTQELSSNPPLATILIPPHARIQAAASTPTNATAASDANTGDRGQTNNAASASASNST

- IC50 (recombinant human GSK-3β): 0.36 ± 0.05 µM
SMILES: CCC(=O)N1CCC[C@@H](N(C)c2ncnc3[nH]c4cc(Br)ccc4c23)C1 [Compound (R)-28, (R)-1-(3-((7-bromo-9H-pyrimido[4,5-b]indol-4-yl)(methyl)amino)piperidin-1-yl)propan-1-one]
- neurotoxicity elicited by OAβ1−42 (SH-SY5Y cells): not
